Results taken from PMC5874699, “Antimicrobial and Antibiofilm Activity of UP-5, an Ultrashort Antimicrobial Peptide Designed Using Only Arginine and Biphenylalanine” (Pharmaceuticals, 2018).

How the values were obtained:
[1] = tested on: methicillin-resistant S. aureus (MRSA) (ATCC 33591); test: MIC/MBC, microbroth dilution (CLSI); format: cell-based, Staphylococcus aureus; conditions: S. aureus ATCC 33591, antibiotic alone, triplicate
Text: (§1) All bacterial susceptibility, biofilm, and synergistic assays of peptides, antibiotics, and peptides-antibiotics combinations used bacterial strains obtained from the American Type Tissue Culture Collection (ATCC, Manassas, VA, USA) that states the mechanism of resistance for each strain according to ATCC number. Gram-positive bacteria were represented by five strains, the wild type strain Staphylococcus aureus (ATCC 29213) and methicillin-resistant S. aureus (MRSA) (ATCC 33591) in addition to clinically isolated strains S. aureus (ATCC BAA-41& 43300) and Enterococcus faecalis (ATCC BAA-2316). The Gram-negative bacteria strains were represented by wild type strains of Escherichia coli (ATCC 25922 & 35218) and Pseudomonas aeruginosa (ATCC 27853) as well as the clinically isolated multidrug-resistant strain P. aeruginosa (ATCC BAA-2114). The bacteria were cultured onto Muller Hinton Agar (Scharlab, S.L, Barcelona, Spain). Mueller Hinton Broth (Oxoid Ltd., Basingstoke, UK) was used to prepare all bacterial suspensions and to dissolve the peptides and the antibiotics. The assay was performed in sterile 96-well polypropylene microtiter plates.
(§2) All bacterial susceptibility assays were conducted according to the microbroth dilution method outlined by the Clinical and Laboratory Standards Institute (CLSI) guidelines.
(§3) Briefly, pre-sterilized MHB was used as a growth medium for organisms obtained from stock media with glycerol. Bacterial cells were grown overnight in MHB and diluted to 10^6 CFU/mL in the same medium prior to use. For peptide, serial concentrations in the range of 0.5–100 μM were prepared. Then, 50 μL of each peptide concentration and 50 µL of diluted bacterial suspension were added to each well of a 96-well microtiter plate. Peptide solutions were prepared by dissolving the peptide in sterile MHB. Then, the plates were incubated overnight in a humidified atmosphere, and at 37 °C. Bacterial growth was determined by measuring the optical density (OD) at λ = 600 nm using an ELISA plate reader (Epoch, BioTek, Winooski, VT, USA) and the minimum inhibitory concentration (MIC) was determined.
(§4) As described in the previous section, the MIC and MBC values of antibiotics employed in this study were determined against subjected bacterial strains via preparing different concentrations of each antibiotic.

S. aureus (ATCC 29213) = test: Broth microdilution checkerboard, UP-5 with antibiotics; format: cell-based, Staphylococcus aureus
Text: as §1
(§5) According to the broth microdilution checkerboard technique, the MIC and MBC values of peptide-antibiotics combinations against wild type and multidrug resistant bacterial strains were determined. Serial concentrations of peptide and each antibiotic were prepared in the range of 0.005–100 μM. In each well of a 96-well microtiter plate, 25 μL of each peptide concentration were added to 25 μL of each antibiotic concentration which is followed by adding 50 μL of diluted bacterial suspension (10^6 CFU/mL) to each well. The prepared concentrations of peptide and each antibiotic were arranged into rows and columns, respectively, in a 96-well microtiter plate according the checkerboard technique. Then as described previously (see Section 2.4.1), the procedure was followed. All MIC and MBC determinations of all assays were made in triplicate.
(§6) The fractional inhibitory concentration (FIC) is defined as the inhibitory concentration of the antimicrobial combination divided by that of the single antimicrobial component. To calculate FIC index for peptide-antibiotic combinations, the following equation was used:(1) FIC index=MIC of drug X in combination/MIC of drug X alone+MIC of drug Y in combination/MIC of drug Y alone
(§7) The FIC indices were interpreted as follows: ≤0.5: synergistic activity, 0.5–1: additive activity, 1–4 indifferent, >4: antagonism. Interpretation and assessment of the FIC indices were performed according to the broth microdilution checkerboard technique.

S. aureus (ATCC BAA-41) [2] = test: as above; format: cell-based, Staphylococcus aureus
Text: as §1, §5, §6, §7

S. aureus (ATCC 33591) = test: as above; format: cell-based, Staphylococcus aureus
Text: as §1, §5, §6, §7

S. aureus (ATCC 43300) [3] = test: as above; format: cell-based, Staphylococcus aureus
Text: as §1, §5, §6, §7

[4] = tested on: Staphylococcus aureus (ATCC 29213); format: cell-based; conditions: S. aureus ATCC 29213, antibiotic alone, triplicate
Text: as §1, §2, §3, §4

[5] = tested on: P. aeruginosa (ATCC BAA-2114); test: Broth microdilution checkerboard, UP-5 with antibiotics; format: cell-based, Pseudomonas aeruginosa
Text: as §1, §5, §6, §7

[6] = tested on: P. aeruginosa (ATCC BAA-2114); format: cell-based, Pseudomonas aeruginosa; conditions: P. auroginosa ATCC BAA-2114, antibiotic alone, triplicate
Text: as §1, §2, §3, §4

S. aureus (ATCC BAA-41) [7] = format: cell-based, Staphylococcus aureus; conditions: S. aureus ATCC BAA-41, antibiotic alone, triplicate
Text: as §1, §2, §3, §4

S. aureus (ATCC 43300) [8] = format: cell-based, Staphylococcus aureus; conditions: S. aureus ATCC 43300, antibiotic alone, triplicate
Text: as §1, §2, §3, §4

CO[C@H]1/C=C/O[C@@]2(C)Oc3c(C)c(O)c4c(O)c(c(/C=N/N5CCN(C)CC5)c(O)c4c3C2=O)NC(=O)/C(C)=C\C=C\[C@H](C)[C@H](O)[C@@H](C)[C@@H](O)[C@@H](C)[C@H](OC(C)=O)[C@@H]1C [Rifampicin, rifampicin]
Antibiotics MBC Alone ([1]; 99.9% killing): 0.04 µM
Antibiotics MIC Alone ([1]; microbroth dilution): 0.04 µM
Effect of the combination according to FIC value (S. aureus (ATCC 29213); S. aureus (ATCC 29213), antibiotic-UP-5 combination): indifferent (1–4 indifferent)
Antibiotics Reduction in MIC (%) (S. aureus (ATCC 29213); S. aureus ATCC 29213, antibiotic MIC in combination with UP-5 compared to MIC alone): <50%
Antibiotics MIC in Combination (S. aureus (ATCC 29213); S. aureus ATCC 29213, antibiotic in combination with UP-5, checkerboard, triplicate): 0.025 µM
Effect of the combination according to FIC value (S. aureus (ATCC BAA-41) [2]; S. aureus (ATCC BAA-41), antibiotic-UP-5 combination): indifferent (1–4 indifferent)
Antibiotics Reduction in MIC (%) (S. aureus (ATCC BAA-41) [2]; S. aureus ATCC BAA-41, antibiotic MIC in combination with UP-5 compared to MIC alone): 60%
Antibiotics MIC in Combination (S. aureus (ATCC BAA-41) [2]; S. aureus ATCC BAA-41, antibiotic in combination with UP-5, checkerboard, triplicate): 0.002 µM
Effect of the combination according to FIC value (S. aureus (ATCC 33591); S. aureus (ATCC 33591), antibiotic-UP-5 combination): synergistic (≤0.5: synergistic activity)
Antibiotics Reduction in MIC (%) (S. aureus (ATCC 33591); S. aureus ATCC 33591, antibiotic MIC in combination with UP-5 compared to MIC alone): 87.5%
Antibiotics MIC in Combination (S. aureus (ATCC 33591); S. aureus ATCC 33591, antibiotic in combination with UP-5, checkerboard, triplicate): 0.005 µM
Effect of the combination according to FIC value (S. aureus (ATCC 43300) [3]; S. aureus (ATCC 43300), antibiotic-UP-5 combination): synergistic (≤0.5: synergistic activity)
Antibiotics Reduction in MIC (%) (S. aureus (ATCC 43300) [3]; S. aureus ATCC 43300, antibiotic MIC in combination with UP-5 compared to MIC alone): 87.5%
Antibiotics MBC Alone ([4]; 99.9% killing): 0.025 µM
Antibiotics MIC Alone ([4]; microbroth dilution): 0.025 µM
Effect of the combination according to FIC value ([5]; P. aeruginosa (ATCC 2114 as printed), antibiotic-UP-5 combination): synergistic (≤0.5: synergistic activity)
Antibiotics MIC in Combination ([5]; P. auroginosa ATCC BAA-2114, antibiotic in combination with UP-5, checkerboard, triplicate): 0.25 µM
Antibiotics MBC Alone ([6]; 99.9% killing): 50 µM
Antibiotics MIC Alone ([6]; microbroth dilution): 50 µM
Antibiotics MBC Alone (S. aureus (ATCC BAA-41) [7]; 99.9% killing): 0.005 µM
Antibiotics MIC Alone (S. aureus (ATCC BAA-41) [7]; microbroth dilution): 0.005 µM
Antibiotics MBC Alone (S. aureus (ATCC 43300) [8]; 99.9% killing): 1 µM
Antibiotics MIC Alone (S. aureus (ATCC 43300) [8]; microbroth dilution): 1 µM
